One assay deals with P. falciparum strain W2. Nature of the assay: [3H]-hypoxanthine growth inhibition assay, P. falciparum W2. The assay is classed as cell-based. Particulars: Plasmodium falciparum. The method, then: (§1) The potential for antimalarial activity against Plasmodium falciparum was determined by measuring the incorporation of tritiated hypoxanthine into parasitized red blood cells.
(§2) Stock solutions of the test compounds and the reference drug chloroquine (CQ) (Sigma Chemicals C-6628, Lot #059H0919) were prepared in silanized glass vials with AquaSil™ (Pierce, USA) to minimize absorption of the compounds to glassware. All test compounds were dissolved in DMSO (Sigma Cat No. #D8418) to 1 mM concentration, whereas CQ was dissolved in 50% methanol at a concentration of 1.6 mg/ml (base). Stock solutions were stored at −20° C.
(§3) The P. falciparum laboratory adapted strains utilized in this project (Table 1) were in vitro cultured and routinely maintained in RPMI-1640-LPLF complete medium, which contained low concentrations of para-amino benzoic acid (0.0005 mg/L) and folic acid (0.01 mg/L).
(§4) The low concentration of folic acid in RPMI-1640-LPLF prevents inhibition of the compound if its activity targets the parasite's folate metabolic pathway. Parasites were cultured in human red blood cells (RBCs) in vitro at 37° C. in special gas mixture (5% O2, 5% CO2 and 90% N2) as described Trager and Jensen (1979 Science 193:673-675).
(§5) Base cultivation medium consisted of 10.4 g/L RPMI-1640-LPLF powder (Gibco BRL), 5.97 g/L HEPES buffer (MP Biomedicals, USA), 2.0 g/L D-glucose (BDH chemicals, Australia), 0.05 g/L hypoxanthine (Sigma, USA) and 40 mg/L gentamycin (Pfizer, Australia). The pH of the medium was adjusted to 6.9 and the solution was filtered using 0.2 μm pore size (AcroCap, Gelman Science, USA). Complete medium was prepared by adding sodium bicarbonate solution (final concentration, 0.21%) and drug-free heat-inactivated human plasma, pooled from various blood types, obtained from the Australian Red Cross Blood Service (Brisbane) (final concentration, 10%) to the base RPMI-1640-LPLF. For [^3H]-hypoxanthine inhibition growth assay, RPMI-1640-LPLF complete medium which lacked [^3H]-hypoxanthine ([^3H]-RPMI-1640-LPLF) was used to prevent uptake of hypoxanthine by parasites, as radioactive hypoxanthine uptake is measured as a surrogate marker of growth. All complete medium was used within three days of preparation. See DE (Para) SOP 002 for methodology.
(§6) Red blood cells (RBC) were required for P. falciparum parasites to proliferate in vitro. 0 (Rh+) type blood was obtained from the Australian Red Cross Blood Service. The RBC were washed twice in phosphate-buffered saline (PBS) and once in [^3H]-RPMI-1640-LPLF complete medium by centrifugation at 1,500×g for 5 min. Following the final wash, the haematocrit was measured as the percent of RBC to total culture volume. The haematocrit was adjusted to 50% by removing or adding [^3H]-RPMI-LPLF complete medium. See DE (Para) SOP 003 for methodology.
(§7) All P. falciparum strains were grown in RPMI-1640-LPLF complete medium at 4% haematocrit and 1% to 8% parasitaemia at 37° C. in sealed flasks in a gas mixture of 5% O2, 5% CO2 and 90% N2 (BOC Gases, Brisbane, Australia). For drug susceptibility assays cultures were routinely synchronized when the majority of parasites (>85%) were at early trophozoite (ring) stage. Synchronization involved removing the more mature erythrocytic parasite stages by lysis, resulting in the retention only of early trophozoite (ring) stages. Synchronization was performed by re-suspending the infected red blood cell (iRBC) pellet in 5 to 10 times its volume of 5% D-sorbitol (Bacto Laboratories Pty. Ltd., Australia) for 5 min (Lambros and Vanderberg, 1979 J Parasitol 65: 418-420). The mixture was centrifuged (1,500 rpm for 5 min) and the supernatant removed. The iRBC were washed twice using PBS buffer and once using [^3H]-RPMI-LPLF plain medium. Following synchronization, a new culture was prepared with an initial parasitaemia of 1% in RPMI-LPLF complete medium. See DE (Para) SOP 008 for methodology.

The next assay has as its system P. falciparum strain D6. Nature of the assay: [3H]-hypoxanthine growth inhibition assay, P. falciparum D6. It is filed as cell-based. To be noted: Plasmodium falciparum. Here is the method: as §1, §2, §3, §4, §5, §6, §7
Setting [1] is: P. falciparum W2 (resistant to chloroquine and pyrimethamine), [3H]-hypoxanthine incorporation, read-out: W2 IC50.
Where [2] appears, read: P. falciparum D6 (sensitive to chloroquine and pyrimethamine), [3H]-hypoxanthine incorporation, read-out: D6 IC50.

Counter-ions that a name gives are not always drawn. Like-named read-outs stand apart in the source and are kept apart here.

Usually IC50 stands for the concentration that inhibits the measured activity by half. On to `CC(C)(C)NCc1cc(C(C)(C)C)cc(-c2ccc(Cl)s2)c1O` [Example 2, 4-(tert-Butyl)-2-((tert-butylamino)methyl)-6-(5-chlorothiophen-2-yl)phenol hydrochloride], for which the half-inhibitory concentration (IC50) in the assay on P. falciparum strain W2 (setting [1]) was determined as 0.025 µM; in the assay on P. falciparum strain D6 (setting [2]), 0.045 µM.
For `CC(C)(C)NCc1cc(C(C)(C)C)cc(-c2cnc3ccccc3c2)c1O` [Example 3, 4-(tert-Butyl)-2-((tert-butylamino)methyl)-6-(quinolin-3-yl)phenol dihydrochloride], the IC50 in the assay on P. falciparum strain W2 (W2, read-out: W2 IC50) is 0.022 µM; with P. falciparum strain D6 (D6, read-out: D6 IC50), 0.026 µM.
The corresponding values for `CC(C)(C)NCc1cc(C(C)(C)C)cc(-c2cccc3ncccc23)c1O` [Example 4, 4-(tert-Butyl)-2-((tert-butylamino)methyl)-6-(quinolin-5-yl)phenol dihydrochloride] are 0.2 µM and 0.144 µM.
Take `CC(C)(C)NCc1cc(C(C)(C)C)cc(-c2ccc3ncccc3c2)c1O` [Example 5, 4-(tert-Butyl)-2-((tert-butylamino)methyl)-6-(quinolin-6-yl)phenol dihydrochloride]: the half-inhibitory concentration (IC50) turned out to be 0.025 µM in the assay on P. falciparum strain W2 (W2, read-out: W2 IC50) and 0.037 µM in the assay on P. falciparum strain D6 (D6, read-out: D6 IC50).
In the case of `CC(C)(C)NCc1cc(C(C)(C)C)cc(-c2cc3ccccc3o2)c1O` [Example 6, 2-(Benzofuran-2-yl)-4-(tert-butyl)-6-((tert-butylamino)methyl)phenol hydrochloride], the concentration for half-maximal inhibition (IC50) with P. falciparum strain W2 (setting [1]) is 0.013 µM; in the assay with P. falciparum strain D6 (setting [2]), 0.031 µM.
The corresponding values for `CC(C)(C)NCc1cc(C(C)(C)C)cc(-c2cc3ccccc3s2)c1O` [Example 7, 2-(Benzo[b]thiophen-2-yl)-4-(tert-butyl)-6-((tert-butylamino)methyl)phenol hydrochloride] are 0.009 µM and 0.018 µM.
As to `CC(C)(C)NCc1cc(C(C)(C)C)cc(-c2ccnc3ccccc23)c1O` [Example 8, 4-(tert-Butyl)-2-((tert-butylamino)methyl)-6-(quinolin-4-yl)phenol dihydrochloride], the IC50 in the assay with P. falciparum strain W2 (W2, read-out: W2 IC50) stood at 0.094 µM; in the assay with P. falciparum strain D6 (D6, read-out: D6 IC50), 0.109 µM.
In the case of `Cn1nc(C(F)(F)F)cc1-c1cc(C(C)(C)C)cc(CNC(C)(C)C)c1O` [Example 9, 4-(tert-Butyl)-2-((tert-butylamino)methyl)-6-(1-methyl-3-(trifluoromethyl)-1H-pyrazol-5-yl)phenol hydrochloride], the IC50 in the assay on P. falciparum strain W2 (setting [1]) turned out to be 0.048 µM; in the assay with P. falciparum strain D6 (setting [2]) it was 0.094 µM.
Consider `CC(C)Oc1ccc(-c2cc(C(C)(C)C)cc(CNC(C)(C)C)c2O)cn1` [Example 10, 4-(tert-Butyl)-2-((tert-butylamino)methyl)-6-(6-isopropoxypyridin-3-yl)phenol dihydrochloride], for which the half-maximal inhibitory concentration (IC50) was determined as 0.011 µM with P. falciparum strain W2 (W2, read-out: W2 IC50) and 0.025 µM in the assay on P. falciparum strain D6 (D6, read-out: D6 IC50).
The corresponding values for `CC(C)(C)NCc1cc(C(C)(C)C)cc(-c2ccc(N)nc2)c1O` [Example 11, 2-(6-Aminopyridin-3-yl)-4-(tert-butyl)-6-((tert-butylamino)methyl)phenol dihydrochloride] are 0.398 µM and 0.35 µM.
As for `COc1ccc(-c2cc(C(C)(C)C)cc(CNC(C)(C)C)c2O)cn1` [Example 12, 4-(tert-Butyl)-2-((tert-butylamino)methyl)-6-(6-methoxypyridin-3-yl)phenol dihydrochloride], the IC50 in the assay on P. falciparum strain W2 (W2, read-out: W2 IC50) is 0.014 µM; with P. falciparum strain D6 (D6, read-out: D6 IC50), 0.023 µM.
For `CC(C)(C)NCc1cc(C(C)(C)C)cc(-c2cncc3ccccc23)c1O` [Example 13, 4-(tert-Butyl)-2-((tert-butylamino)methyl)-6-(isoquinolin-4-yl)phenol dihydrochloride], the IC50 in the assay with P. falciparum strain W2 (W2, read-out: W2 IC50) came to 0.085 µM; with P. falciparum strain D6 (D6, read-out: D6 IC50) it was 0.073 µM.
The like results for `CN(C)c1ccc(-c2cc(C(C)(C)C)cc(CNC(C)(C)C)c2O)cn1` [Example 14, 4-(tert-Butyl)-2-((tert-butylamino)methyl)-6-(6-(dimethylamino)pyridin-3-yl)phenol dihydrochloride] were, in that order, 0.014 µM and 0.023 µM.

Source of the values: patent US9409893B2, “Heteroaryl derivatives and uses thereof” (Jacobus Pharmaceutical Company, Inc., priority 2012, dated 2016).
